From patent publication US11472792B2, “Herbicidal mixtures” (SYNGENTA CROP PROTECTION AG, priority 2019, dated 2022)

How the values were obtained:
Type in all cases: in vivo
[1] = test system: Abutilon theophrasti (ABUTH); experiment: Herbicidal efficacy, post-emergence application (glasshouse); details: evaluated visually after 13 days, 100=total damage, 0=no damage; for pest or weed control at 250 g/ha: Abutilon theophrasti, 312 h, read-out: percentage phytotoxicity to the plant, ABUTH
Method: (§1) Seeds of a variety of test species [Ipomoea hederacea (IPOHE); Zea mays (ZEAMX); Echinochloa crus-galli (ECHCG); Setaria faberi (SETFA); Abutilon theophrasti (ABUTH); Amaranthus retroflexus (AMARE)] were sown in standard sterilised soil in pots. After cultivation for one day (pre-emergence) or after 8 days cultivation (post-emergence) under controlled conditions in a glasshouse (at 24/16° C., day/night; 14 hours light; 65% humidity), the plants were sprayed with an aqueous spray solution derived from the formulation of the technical active ingredient in acetone/water (50:50) solution containing 0.5% Tween 20 (polyoxyethelyene sorbitan monolaurate, CAS RN 9005-64-5), subsequently diluted in water, and sprayed to give the stated application rate.
(§2) The test plants were then grown under controlled conditions in a glasshouse (at 24/16° C., day/night; 14 hours light; 65% humidity) and watered twice daily.
(§3) After 13 days for pre and post-emergence, the test was evaluated visually for percentage phytotoxicity to the plant (where 100=total damage to plant; 0=no damage to plant).

[2] = test system: Ipomoea hederacea (IPOHE); experiment: as above; details: evaluated visually after 13 days, 100=total damage, 0=no damage; for pest or weed control at 250 g/ha: Ipomoea hederacea, 312 h, read-out: percentage phytotoxicity to the plant, IPOHE
Method: as §1, §2, §3

Setaria faberi (SETFA) [3] = experiment: as above; details: evaluated visually after 13 days, 100=total damage, 0=no damage; for pest or weed control at 250 g/ha: Setaria faberi, 312 h, read-out: percentage phytotoxicity to the plant, SETFA
Method: as §1, §2, §3

Zea mays (ZEAMX) [4] = experiment: as above; details: evaluated visually after 13 days, 100=total damage, 0=no damage; for plant injury at 250 g/ha: Zea mays, 312 h, read-out: percentage phytotoxicity to the plant, ZEAMX
Method: as §1, §2, §3

[5] = test system: Amaranthus retroflexus (AMARE); experiment: as above; details: evaluated visually after 13 days, 100=total damage, 0=no damage; for pest or weed control at 250 g/ha: Amaranthus retroflexus, 312 h, read-out: percentage phytotoxicity to the plant, AMARE
Method: as §1, §2, §3

[6] = test system: Echinochloa crus-galli (ECHCG); experiment: as above; details: evaluated visually after 13 days, 100=total damage, 0=no damage; for pest or weed control at 250 g/ha: Echinochloa crus-galli, 312 h, read-out: percentage phytotoxicity to the plant, ECHCG
Method: as §1, §2, §3

[7] = test system: Abutilon theophrasti (ABUTH); experiment: Herbicidal efficacy, pre-emergence application (glasshouse); details: evaluated visually after 13 days, 100=total damage, 0=no damage; for pest or weed control at 250 g/ha: Abutilon theophrasti, 312 h, read-out: percentage phytotoxicity to the plant, ABUTH
Method: as §1, §2, §3

[8] = test system: Ipomoea hederacea (IPOHE); experiment: as above; details: evaluated visually after 13 days, 100=total damage, 0=no damage; for pest or weed control at 250 g/ha: Ipomoea hederacea, 312 h, read-out: percentage phytotoxicity to the plant, IPOHE
Method: as §1, §2, §3

Setaria faberi (SETFA) [9] = experiment: as above; details: evaluated visually after 13 days, 100=total damage, 0=no damage; for pest or weed control at 250 g/ha: Setaria faberi, 312 h, read-out: percentage phytotoxicity to the plant, SETFA
Method: as §1, §2, §3

Zea mays (ZEAMX) [10] = experiment: as above; details: evaluated visually after 13 days, 100=total damage, 0=no damage; for plant injury at 250 g/ha: Zea mays, 312 h, read-out: percentage phytotoxicity to the plant, ZEAMX
Method: as §1, §2, §3

[11] = test system: Amaranthus retroflexus (AMARE); experiment: as above; details: evaluated visually after 13 days, 100=total damage, 0=no damage; for pest or weed control at 250 g/ha: Amaranthus retroflexus, 312 h, read-out: percentage phytotoxicity to the plant, AMARE
Method: as §1, §2, §3

[12] = test system: Echinochloa crus-galli (ECHCG); experiment: as above; details: evaluated visually after 13 days, 100=total damage, 0=no damage; for pest or weed control at 250 g/ha: Echinochloa crus-galli, 312 h, read-out: percentage phytotoxicity to the plant, ECHCG
Method: as §1, §2, §3

Compound | pest or weed control at 250 g/ha [1] | pest or weed control at 250 g/ha [2] | pest or weed control at 250 g/ha (Setaria faberi (SETFA) [3]) | plant injury at 250 g/ha (Zea mays (ZEAMX) [4]) | pest or weed control at 250 g/ha [5] | pest or weed control at 250 g/ha [6] | pest or weed control at 250 g/ha [7] | pest or weed control at 250 g/ha [8] | pest or weed control at 250 g/ha (Setaria faberi (SETFA) [9]) | plant injury at 250 g/ha (Zea mays (ZEAMX) [10]) | pest or weed control at 250 g/ha [11] | pest or weed control at 250 g/ha [12] | other results
CN1C[C@H](c2cnn(C)c2C(F)(F)F)[C@@H](C(=O)Nc2cccc(F)c2F)C1=O [Compound 2.15, (3S,4S)-N-(2,3-difluorophenyl)-1-methyl-4-[1-methyl-5-(trifluoromethyl)pyrazol-4-yl]-2-oxo-pyrrolidine-3-carboxamide] | 0% | 40% | 80% | 30% | 0% | 80% | 40% | 20% | 100% | 40% | 0% | 100% | –
CCc1ccccc1NC(=O)[C@H]1C(=O)N(C)C[C@@H]1c1cc(C(F)(F)F)n(C)n1 [Compound 2.11, (3S,4R)-N-(2-ethylphenyl)-1-methyl-4-[1-methyl-5-(trifluoromethyl)pyrazol-3-yl]-2-oxo-pyrrolidine-3-carboxamide] | 0% | 0% | 80% | 0% | 20% | 80% | 0% | 0% | 90% | 20% | 70% | 90% | –
CN1C[C@H](c2cc(C(F)(F)F)n(C)n2)[C@@H](C(=O)Nc2cccc(F)n2)C1=O [Compound 2.9, (3S,4R)-N-(6-fluoro-2-pyridyl)-1-methyl-4-[1-methyl-5-(trifluoromethyl)pyrazol-3-yl]-2-oxo-pyrrolidine-3-carboxamide] | 0% | 50% | 80% | 40% | 0% | 80% | 0% | 40% | 90% | 80% | 0% | 100% | –
CN1C[C@H](c2cc(C(F)(F)F)n(C)n2)[C@@H](C(=O)Nc2ccc(F)cc2F)C1=O [Compound 2.3, (3S,4R)-N-(2,4-difluorophenyl)-1-methyl-4-[1-methyl-5-(trifluoromethyl)pyrazol-3-yl]-2-oxo-pyrrolidine-3-carboxamide] | 60% | 10% | 70% | 60% | 10% | 70% | 70% | 10% | 90% | 60% | 50% | 90% | –
CN1C[C@H](c2cc(C(F)(F)F)n(C)n2)[C@@H](C(=O)Nc2cccc(F)c2C(F)(F)F)C1=O [Compound 2.5, (3S,4R)-N-[3-fluoro-2-(trifluoromethyl)phenyl]-1-methyl-4-[1-methyl-5-(trifluoromethyl)pyrazol-3-yl]-2-oxo-pyrrolidine-3-carboxamide] | 0% | 0% | 80% | 10% | 30% | 80% | 0% | 10% | 90% | 20% | 0% | 90% | –
CN1C[C@H](c2cc(C(F)(F)F)n(C)n2)[C@@H](C(=O)Nc2ccc(F)c(F)c2F)C1=O [Compound 2.7, (3S,4R)-1-methyl-4-[1-methyl-5-(trifluoromethyl)pyrazol-3-yl]-2-oxo-N-(2,3,4-trifluorophenyl)pyrrolidine-3-carboxamide] | 0% | 0% | 80% | 80% | 50% | 80% | 10% | 20% | 90% | 90% | 20% | 100% | –
CN1C[C@H](c2cc(C(F)(F)F)n(C)n2)[C@@H](C(=O)Nc2cccc(F)c2F)C1=O [Compound 2.1, (3S,4R)-N-(2,3-difluorophenyl)-1-methyl-4-[1-methyl-5-(trifluoromethyl)pyrazol-3-yl]-2-oxo-pyrrolidine-3-carboxamide] | 0% | 0% | 90% | 80% | 20% | 90% | 10% | 30% | 90% | 90% | 70% | 100% | –
CN1C[C@H](c2cc(C(F)(F)F)n(C)n2)[C@@H](C(=O)Nc2cccc(F)c2OC(F)(F)F)C1=O [Compound 2.4, (3S,4R)-N-[3-fluoro-2-(trifluoromethoxy)phenyl]-1-methyl-4-[1-methyl-5-(trifluoromethyl)pyrazol-3-yl]-2-oxo-pyrrolidine-3-carboxamide] | 0% | 0% | 70% | 0% | 0% | 70% | 0% | 50% | 90% | 30% | 0% | 90% | –
CN1C[C@H](c2cc(C(F)(F)F)n(C)n2)[C@@H](C(=O)Nc2ccccc2F)C1=O [Compound 2.2, (3S,4R)-N-(2-fluorophenyl)-1-methyl-4-[1-methyl-5-(trifluoromethyl)pyrazol-3-yl]-2-oxo-pyrrolidine-3-carboxamide] | 0% | 0% | 90% | 50% | 0% | 90% | 0% | 0% | 90% | 20% | 20% | 90% | –
(3S,4R)-N-[2-(1,1-difluoroethyl)-3-fluoro-phenyl]-1-methyl-4-[1-methyl-5-(trifluoromethyl)pyrazol-3-yl]-2-oxo-pyrrolidine-3-carboxamide [Compound 2.12] | – | – | – | – | – | – | – | – | – | – | – | – | percentage phytotoxicity to the plant, ABUTH ([1]; 250 g/ha): 0%; percentage phytotoxicity to the plant, IPOHE ([2]; 250 g/ha): 50%; percentage phytotoxicity to the plant, SETFA (Setaria faberi (SETFA) [3]; 250 g/ha): 90%; percentage phytotoxicity to the plant, ZEAMX (Zea mays (ZEAMX) [4]; 250 g/ha): 80%; percentage phytotoxicity to the plant, AMARE ([5]; 250 g/ha): 0%; percentage phytotoxicity to the plant, ECHCG ([6]; 250 g/ha): 90%; percentage phytotoxicity to the plant, ABUTH ([7]; 250 g/ha): 0%; percentage phytotoxicity to the plant, IPOHE ([8]; 250 g/ha): 70%; percentage phytotoxicity to the plant, SETFA (Setaria faberi (SETFA) [9]; 250 g/ha): 90%; percentage phytotoxicity to the plant, ZEAMX (Zea mays (ZEAMX) [10]; 250 g/ha): 90%; percentage phytotoxicity to the plant, AMARE ([11]; 250 g/ha): 0%; percentage phytotoxicity to the plant, ECHCG ([12]; 250 g/ha): 90%
COc1c(F)cccc1NC(=O)[C@H]1C(=O)N(C)C[C@@H]1c1cc(C(F)(F)F)n(C)n1 [Compound 2.6, (3S,4R)-N-(3-fluoro-2-methoxy-phenyl)-1-methyl-4-[1-methyl-5-(trifluoromethyl)pyrazol-3-yl]-2-oxo-pyrrolidine-3-carboxamide] | 0% | 50% | 70% | 80% | 0% | 70% | 0% | 20% | 90% | 80% | 0% | 90% | –
